Data from patent US12042481B2, “Use of (1R,5S)-(+)-1-(naphthalen-2-yl)-3-azabicyclo[3.1.0]hexane in the treatment of conditions affected by monoamine neurotransmitters” (priority 2011, dated 2024).

Key:
[1] = test system: monoamine uptake transporters; assay: Microdialysis in rat striatum (extracellular DA, HVA); type: in vivo
Experimental: (§1) To evaluate the effect of (1R,5S)-(+)-1-(naphthalen-2-yl)-3-azabicyclo[3.1.0]hexane on monoamine uptake transporters in vivo, microdialysis studies were performed in rat brain regions.
(§2) Microdialysis studies were conducted using male Wistar rats (250-300 g) bred at the Institute of Pharmacology, the Polish Academy of Sciences, Krakow, Poland. The rats (250-300 g) were housed on a 12 h/12 h light/dark cycle at a constant temperature and humidity, and were provided with food and water ad libitum. The microdialysis procedure has been previously described (Popik et al., 2006). Briefly, the rats were anaesthetized with ketamine (75 mg/kg IM) and xylazine (10 mg/kg IM), placed in a stereotaxic apparatus (David Kopf Instruments, Tujunga, CA, USA) with their skulls exposed. Small holes were drilled in the skull for insertion of the vertical microdialysis probes into the prefrontal cortex and striatum, respectively using the following coordinates: 2.9 mm anterior from the bregma, 0.8 mm lateral from the sagittal suture and −4.5 ventral from the dura surface (prefrontal cortex); 1.8 mm anterior from the bregma, 2.7 mm lateral from the sagittal suture and −7.0 mm ventral from the dura surface (striatum) (Paxinos and Watson, 1998). Microdialysis probes were constructed by inserting two fused silica tubes (30 and 35 mm long, 150 μm o.d.; Polymicro Technologies Inc., Phoenix, AZ, USA) into a microdialysis fiber (220 μm o.d.; AN69, Hospal, Bologna, Italy). The tube assembly was placed in a stainless steel cannula (22 G, 10 mm) forming the shaft of the probe. Portions of the inlet and outlet tubes were individually placed inside polyethylene PE-10 tubing and were glued for protection. The free end of the dialysis fibre was sealed, and 3 mm of the exposed length used for dialysis in prefrontal cortex and 4 mm for striatum. One day after the surgery and probe implantation, the inlet of the dialysis probes was connected to a syringe pump (BAS, IN, USA) which delivered an artificial cerebrospinal fluid (aCSF) composed of [in mM]: NaCl 145, KCl 2.7, MgCl2 1.0, CaCl2 1.2; pH=7.4 at a flow rate of 1.5 μl/min. After a two hour rinsing period to stabilize the extracellular level of neurotransmitters, 3-4 baseline samples were collected in 20 minute sampling periods. Next, (1R,5S)-(+)-1-(naphthalen-2-yl)-3-azabicyclo[3.1.0]hexane (dissolved in 0.9% saline solution) at doses of 10 or 20 mg/kg intraperioneally (i.p.) was administered to the animals at 4 ml/kg and consequent dialysate fractions were collected every 20 min for 3 hrs. At the end of the experiments the rats were sacrificed and their brains were histologically examined to validate the correct probe placement
Dopamine, and serotonin (5-HT) were analysed by HPLC with electrochemical detection. […] The flow rate was 0.5 ml/min, and the applied potential of a 3 mm glassy carbon electrode was +600 mV with a sensitivity of 2 nA/V. Norepinephrine was measured using HPLC system equipped with a P580 pump (Dionex, CA, USA) connected to a BAS injection valve with a 10 μI injection loop and a BDS-Hypersil analytical column (2.0×100 mm, a 3 μm, Thermo Electron Corp., UK). […] NE in the dialysates was detected with a BAS UniJet radial flow detector cell coupled to a LC-4B amperometric detector (BAS, IN, USA). […]

[2] = molecular target: T1, recombinant human 5-HT transporter (Homo sapiens, UniProt P31645); assay: Inhibition of [3H]serotonin uptake in HEK-293 cells transfected with the 5-HT uptake transporter; type: cell-based
T1 construct: host or cells: HEK-293
T1 sequence (P31645 whole entry): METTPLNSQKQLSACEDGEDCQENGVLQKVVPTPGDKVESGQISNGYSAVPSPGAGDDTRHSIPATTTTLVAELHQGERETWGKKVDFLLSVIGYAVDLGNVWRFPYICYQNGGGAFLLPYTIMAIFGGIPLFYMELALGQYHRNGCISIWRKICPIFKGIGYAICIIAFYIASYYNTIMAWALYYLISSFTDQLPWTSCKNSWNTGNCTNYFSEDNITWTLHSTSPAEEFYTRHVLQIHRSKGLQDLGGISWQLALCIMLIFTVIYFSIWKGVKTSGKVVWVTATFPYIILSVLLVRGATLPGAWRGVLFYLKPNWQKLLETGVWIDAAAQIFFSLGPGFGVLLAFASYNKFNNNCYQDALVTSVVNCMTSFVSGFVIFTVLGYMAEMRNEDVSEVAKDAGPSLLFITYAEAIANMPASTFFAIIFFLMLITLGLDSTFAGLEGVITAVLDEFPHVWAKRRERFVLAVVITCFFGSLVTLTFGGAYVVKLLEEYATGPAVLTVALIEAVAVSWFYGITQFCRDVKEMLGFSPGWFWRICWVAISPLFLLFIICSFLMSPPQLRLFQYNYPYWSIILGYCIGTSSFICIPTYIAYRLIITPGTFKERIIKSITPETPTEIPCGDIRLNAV
Experimental: The ability of (1R,5S)-(+)-1-(naphthalen-2-yl)-3-azabicyclo[3.1.0]hexane for inhibiting transport of norepinephrine (NE) and/or dopamine (DA) and/or serotonin (5-HT) was evaluated using cell lines (such as the HEK 293 cell line) that stably express recombinant human NE, DA, and 5-HT transporters, respectively. Techniques for stably transfecting mammalian cell lines with neurotransmitter transporters and measuring the effects of drugs on amine uptake have been described in the literature (e.g., Eshleman A J, J Pharmacol Exp Ther 289:877-885, 1999) and are well known to those skilled in the art
Monoamine uptake was determined in MDCK, CHO-K1, and HEK-293 cell lines respectively transfected with NE, DA, and 5-HT uptake transporters by MDS Pharma Services (Taipei, Taiwan 112, R. O. C.). The cells were incubated in 5 mM Tris-HCl, and 7.5 mM HEPES buffer, pH 7.1, containing 120 mM NaCl, 5.4 mM KCl, 1.2 mM CaCl2, 1.2 mM MgSO4, 5 mM D-glucose, and 1 mM Ascorbic Acid. The cellular homogenates were incubated with radioligands and various concentrations of drugs for 10 minutes at 25° C. The [^3H]-radioligands incorporated into the cells were determined according to published methods using liquid scintillation counting (Perovic and Müller 1995; Eshleman et al., 1999). […]

[3] = test system: monoamine uptake transporters; assay: Microdialysis in rat prefrontal cortex (extracellular NE, DA, 5-HT); type: in vivo
Experimental: as §1, §2
Dopamine, and serotonin (5-HT) were analysed by HPLC with electrochemical detection. Chromatography was performed using an LC-10 AD pump (Shimadzu Europa GmbH, Warszawa, Poland), an LC-4B amperometric detector with a cross-flow detector cell (BAS, IN, USA) and BDS-Hypersil C18 analytical column (3×100 mm, 3 μm, Thermo Electron Corp., UK). The mobile phase was composed of 0.1 M monochloracetic acid adjusted to pH=3.7 with 3 M sodium hydroxide, 0.5 mM EDTA, 25 mg/L 1-octanesulfonic acid sodium salt, 5.7% methanol, and 2.5% acetonitrile. The flow rate was 0.5 ml/min, and the applied potential of a 3 mm glassy carbon electrode was +600 mV with a sensitivity of 2 nA/V. Norepinephrine was measured using HPLC system equipped with a P580 pump (Dionex, CA, USA) connected to a BAS injection valve with a 10 μI injection loop and a BDS-Hypersil analytical column (2.0×100 mm, a 3 μm, Thermo Electron Corp., UK). The mobile phase was composed of 0.05 M potassium dihydrogen phosphate (adjusted to pH=3.7 with ortho-phosphoric acid), 0.5 mM EDTA, 150 mg/L 1-octanesulfonic acid sodium salt, 10 mM NaCl, and 1.2% acetonitrile. The flow rate was 180 μl/min. NE in the dialysates was detected with a BAS UniJet radial flow detector cell coupled to a LC-4B amperometric detector (BAS, IN, USA). […]

SMILES: c1ccc2cc([C@]34CNC[C@H]3C4)ccc2c1 [(1R,5S)-(+)-1-(naphthalen-2-yl)-3-azabicyclo[3.1.0]hexane]
- duration of effect on extracellular DA [1]: over 3 hours
- effect on extracellular concentrations of HVA (metabolite of DA) [1]: decreased
- time within which extracellular DA was markedly increased [1]: ≤ 40 min
- peak increase of extracellular DA ([1]; 10 mg/kg i.p.): over 275 % of baseline
- peak increase of extracellular DA ([1]; 20 mg/kg i.p.): > 375 % of baseline
- IC50 [2]: 0.083 µM
- time by which extracellular 5-HT was markedly increased [3]: ≤ 40 min
- peak increase of extracellular NE ([3]; 10 mg/kg i.p.): over 325 % of baseline
- peak increase of extracellular NE ([3]; 20 mg/kg i.p.): > 375 % of baseline
- duration of increase of extracellular DA ([3]; 10 and 20 mg/kg i.p.): over 3 hours
- duration of increase of extracellular NE ([3]; 10 and 20 mg/kg i.p.): over 3 hours
- peak increase of extracellular 5-HT ([3]; 10 and 20 mg/kg i.p.): 300 % of baseline
- time after administration at which extracellular NE was markedly increased ([3]; 10 and 20 mg/kg i.p.): 40 min
- time by which extracellular DA was increased ([3]; 10 and 20 mg/kg i.p.): ≤ 20 min
- duration of significant increase of extracellular 5-HT ([3]; both doses 10 and 20 mg/kg i.p.): over 3 hours
- peak increase of extracellular DA ([3]; the two doses 10 and 20 mg/kg i.p.): 240-300 % of baseline
